In patent US12209092B2, “Inhibitors of GLI1 as therapeutic agents” (NEW YORK UNIVERSITY, priority 2018, dated 2025) one finds IC50 data, which are given here for 16 molecules.

The subject of this assay is Gli1-mediated transcription. The assay can be described thus: Gli1-mediated transcriptional luciferase reporter assay. The class given is cell-based. Conditions: Shh-LIGHT2 cells, antagonist mode, purmorphamine 1.5 μM stimulation, 24 h. The procedure:
Gli1-mediated transcriptional luciferase reporter assay was performed using Shh-LIGHT2 cells in order to evaluate the effects on activation and inhibition of Gli1-mediated transcription by the compounds of the disclosure. Brief assay procedure is provided below. […] Shh-LIGHT2 cells were harvested from about 80% confluent 10-cm dish using 0.25% Trypsin-EDTA solution. Medium was removed, and cells were washed with 5 mL DPBS and aspirated. Then, 1 mL 0.25% Trypsin-EDTA solution was added to a 10-cm dish. The dish was placed in the incubator for 1-3 minutes, or until cells have detached. 3 mL of cell growth medium (DMEM, 10% FBS, 1% PenStrep, 1% sodium pyruvate, and 1% GlutaMax) was added to the 10-cm dish, and the contents were transferred to a conical tube. […] The cell assay plate was removed from incubator after cells reached confluency. The culture medium was then manually removed from the cell plates, and the plates were centrifuged at 200 rpm for 30 seconds. […] After 30 min incubation of antagonist, cells were stimulated with agonist (purmorphamine, 5 μL, 1.5 μM final), then incubate for 24 h at 37° C./5% CO2. […] Luciferase assay: After incubation, the cell assay plate was allowed to acclimate to room temperature. Then, 20 μL of Duo-Glo® Luciferase Reagent (Promega) was added to each well of cell assay plate. The plate was briefly spun down, mixed, and incubated for 30 minutes at room temperature. The cell plate was read using luminometer for firefly luminescence activity. Then, 20 μL of Duo-Glo® Step&Glo® Reagent (Promega) was added to each well of cell assay plate. The plate was briefly spun down, mixed, and incubated for 30 minutes at room temperature. The cell plate was read using luminometer for Renilla luminescence activity. Ratio of firefly: Renilla luminescence was calculated for each well. The compound well ratio was normalized to the ratio from a control well.

Setting [1] is: firefly luminescence, read-out: Gli1 IC50 firefly.
Where [2] appears, read: ratio of firefly:Renilla luminescence, read-out: Gli1 IC50 firefly:Renilla ratio.

Where two headings read alike, the source gives them in different places.

Turning to `Fc1cc2c(cc1F)CC(N1CCc3nc(-c4ccccc4F)[nH]c3C1)CC2` (centres unmarked) [Example 72, 5-(6,7-difluoro-1,2,3,4-tetrahydronaphthalen-2-yl)-2-(2-fluorophenyl)-4,5,6,7-tetrahydro-3H-imidazo[4,5-c]pyridine], the IC50 was 1000 to 50000 nM under setting [1] and 1000 to 50000 nM under setting [2].

For the molecule `Fc1cc(F)c2c(c1)CC(N1CCc3nc(-c4ccccc4F)[nH]c3C1)CC2` (centres unmarked) [Example 73, 5-(5,7-difluoro-1,2,3,4-tetrahydronaphthalen-2-yl)-2-(2-fluorophenyl)-4,5,6,7-tetrahydro-3H-imidazo[4,5-c]pyridine], the IC50 under setting [1] is greater than 30000 nM and the IC50 under setting [2] was greater than 30000 nM.

Turning to `Clc1cccnc1-c1nc2c([nH]1)CN(C1CCc3cccc(Cl)c3C1)CC2` (centres unmarked) [Example 77, 5-(8-chloro-1,2,3,4-tetrahydronaphthalen-2-yl)-2-(3-chloropyridin-.2-yl)-4,5,6,7-tetrahydro-3H-imidazo[4,5-c]pyndine], the IC50 under setting [1] was 1000 to 50000 nM and the IC50 under setting [2] lay in the range of 1000 to 50000 nM.

Consider `Clc1cccc2c1CC(N1CCc3nc(-c4ccccn4)[nH]c3C1)CC2` (centres unmarked) [Example 78, 5-(8-chloro-1,2,3,4-tetrahydronaphthalen-2-yl)-2-(pyridin-2-yl)-4,5,6,7-tetrahydro-3H-imidazo[4,5-c]pyridine], for which the IC50 by setting is: under setting [1], 1000 to 50000 nM; under setting [2], 1000 to 50000 nM.

Take `Clc1ccccc1-c1nc2c([nH]1)CN(C1CCc3cccc(Cl)c31)CC2` (centres unmarked) [Example 106, 5-(7-chloro-2,3-dihydro-1H-inden-1-yl)-2-(2-chlorophenyl)-4,5,6,7-tetrahydro-3H-imidazo[4,5-c]pyridine]: the IC50 under setting [1] was in the range of 1000 to 50000 nM and the IC50 under setting [2] was in the range of 1000 to 50000 nM.

For `Clc1ccccc1-c1nc2c([nH]1)CN(C1CCc3cc(Br)ccc3C1)CC2` (centres unmarked) [Example 109, 5-(6-bromo-1,2,3,4-tetrahydronaphthalen-2-yl)-2-(2-chlorophenyl)-4,5,6,7-tetrahydro-3H-imidazo[4,5-c]pyridine], the IC50 by setting is: under setting [1], 1000 to 50000 nM; under setting [2], 1000 to 50000 nM.

As for `COc1cccc2c1CC(N1CCc3nc(-c4ccccc4Cl)n(CCO)c3C1)CC2` (centres unmarked) [Example 130, 2-(2-(2-chlorophenyl)-5-(8-methoxy-1,2,3,4-tetrahydronaphthalen-2-yl)-4,5,6,7-tetrahydro-3H-imidazo[4,5-c]pyridin-3-yl)ethan-1-ol], the IC50 reads like this: under setting [1], 1000 to 50000 nM; under setting [2], 1000 to 50000 nM.

Consider `Cn1c(-c2ccccc2Cl)nc2c1CN(C1CCc3cccc(C4CC4)c3C1)CC2` (centres unmarked) [Example 161, 2-(2-chlorophenyl)-5-(8-cyclopropyl-1,2,3,4-tetrahydronaphthalen-2-yl)-3-methyl-4,5,6,7-tetrahydro-3H-imidazo[4,5-c]pyridine], for which the IC50 lay in the range of 100 to 490 nM under setting [1] and 100 to 490 nM under setting [2].

Take `Cn1c(-c2ccc(C3CC3)cc2Cl)nc2c1CN(C1CCc3ccc(Cl)cc3C1)CC2` (centres unmarked) [Example 163, 5-(7-chloro-1,2,3,4-tetrahydronaphthalen-2-yl)-2-(2-chloro-4-cyclopropylphenyl)-3-methyl-4,5,6,7-tetrahydro-3H-imidazo[4,5-c]pyridine]: the IC50 is less than 100 nM under setting [1] and less than 100 nM under setting [2].

As to `Cn1c(-c2ccc(C3CC3)cc2Cl)nc2c1CCN(C1CCc3ccc(Cl)cc3C1)C2` (centres unmarked) [Example 164, 5-(7-chloro-1,2,3,4-tetrahydronaphthalen-2-yl)-2-(2-chloro-4-cyclopropylphenyl)-1-methyl-4,5,6,7-tetrahydro-1H-imidazo[4,5-c]pyridine], the IC50 under setting [1] was in the range of 100 to 490 nM and the IC50 under setting [2] fell in the range of 100 to 490 nM.

In the case of `Clc1ccccc1-c1nc2c([nH]1)CC(N1CCc3cccc(Cl)c3C1)CC2` (centres unmarked) [Example 185, 8-chloro-2-(2-(2-chlorophenyl)-4,5,6,7-tetrahydro-1H-benzo[d]imidazol-6-yl)-1,2,3,4-tetrahydroisoquinoline], the IC50 under setting [1] is less than 100 nM and the IC50 under setting [2] is less than 100 nM.

On to `Clc1ccccc1-c1nc2c([nH]1)C[C@@H](N1CCc3cccc(Cl)c3C1)CC2` [Example 185-S, (S)-8-chloro-2-(2-(2-chlorophenyl)-4,5,6,7-tetrahydro-1H-benzo[d]imidazol-6-yl)-1,2,3,4-tetrahydroisoquinoline], for which the IC50 is, setting by setting: under setting [1], 100 to 490 nM; under setting [2], less than 100 nM.

As for `Clc1ccccc1-c1nc2c([nH]1)CC(N1Cc3cccc(Cl)c3C1)CC2` (centres unmarked) [Example 186, 6-(4-chloroisoindolin-2-yl)-2-(2-chlorophenyl)-4,5,6,7-tetrahydro-1H-benzo[d]imidazole], the IC50 by setting is: under setting [1], less than 100 nM; under setting [2], less than 100 nM.

For `Cn1c(-c2ccccc2Cl)nc2c1CC(N1CCc3cccc(Cl)c3C1)CC2` (centres unmarked) [Example 187, 8-chloro-2-(2-(2-chlorophenyl)-1-methyl-4,5,6,7-tetrahydro-1H-benzo[d]imidazol-6-yl)-1,2,3,4-tetrahydroisoquinoline], the IC50 runs as follows: under setting [1], less than 100 nM; under setting [2], less than 100 nM.

With `Cn1c(-c2ccccc2Cl)nc2c1CCC(N1CCc3cccc(Cl)c3C1)C2` (centres unmarked) [Example 188, 8-chloro-2-(2-(2-chlorophenyl)-1-methyl-4,5,6,7-tetrahydro-1H-benzo[d]imidazol-5-yl)-1,2,3,4-tetrahydroisoquinoline], the IC50 reads like this: under setting [1], less than 100 nM; under setting [2], less than 100 nM.

Take `Cn1c(-c2ccccc2Cl)nc2c1CC(N1Cc3cccc(Cl)c3C1)CC2` (centres unmarked) [Example 189, 6-(4-chloroisoindolin-2-yl)-2-(2-chlorophenyl)-1-methyl-4,5,6,7-tetrahydro-1H-benzo[d]imidazole]: the IC50 by setting is: under setting [1], less than 100 nM; under setting [2], less than 100 nM.
